What was measured:
cyclooxygenase-1 (COX-1) = target: T1, cyclooxygenase-1 (COX-1) (Homo sapiens, UniProt P23219); assay: Inhibition of cyclooxygenase-1 (COX-1) activity in human blood (thromboxane B2 levels after ionophore A23187); type: cell-based; details: for inhibition at 10 µM: read-out: % inhibition COX-1 (10 μM), 10 μM test compound; for % inhibition COX-1 (10 μM): 10 μM test compound
T1 construct: from tissue; host or cells: heparinized human whole blood
Description: (§1) Inhibition of cyclooxgenase-1 (COX-1) and cyclooxygenase-2 (COX-2) Activity in Human Blood
Heparinized human blood from healthy volunteers who had not taken non-steroidal anti-inflammatory drugs (NSAIDs) for a week, and neither alcohol nor xanthines 24 h before blood collection, is used. Blood is divided into two groups; one will be used to determine COX-1 activity and the other one for COX-2. The procedure to follow will be different in each case.
For COX-1, 12-mL tubes are used. 5 μL of the test compound (in DMSO solution; in duplicate) are placed in each tube. Aditionally two tubes for blanks and two tubes for controls containing 5 μL of DMSO are used. Next, 1 mL of blood is added to each tube and they are stirred. The tubes are placed in a thermostatized bath at 37° C. for 5 h. Then, 5 μL of 5 mM ionophore A23187 is added to each tube, except to the blanks, and tubes are incubated for 30 min more at 37° C. After this time, the tubes are placed in ice and 100 μL of a 100 mM EGTA solution is added to stop the reaction. 2.5 mL of methanol is added to each tube to reach a final concentration of 70%. The tubes are stirred and frozen at −70° C. till their use. The COX-1 activity is determined by measuring thromboxane B2 levels in the samples. Blood is defrozen and centrifuged at 2000 g for 10 min at 4° C. 1 mL of supematant is evaporated under nitrogen to dryness. The solid residue thus obtained is resuspended in 1 mL of saline and the thromboxane B2 levels in these samples are determined using a kit (Kit Thromboxane B2, Biotrak EIA system RPN220 Amershan), according to the manufacturer's instructions.

cyclooxygenase-2 (COX-2) = target: T2, cyclooxygenase-2 (COX-2) (Homo sapiens, UniProt P35354); assay: Inhibition of cyclooxygenase-2 (COX-2) activity in human blood (prostaglandin E2 levels after LPS, aspirin added); type: cell-based; details: for inhibition at 10 µM: read-out: % inhibition COX-2 (10 μM), 10 μM test compound; for inhibition at 1 µM: read-out: % inhibition COX-2 (1 μM), 1 μM test compound; for % inhibition COX-2 (1 μM): 1 μM test compound; for % inhibition COX-2 (10 μM): 10 μM test compound
T2 construct: 5 μL of LPS is also added (in order to induce COX-2 activy); from tissue; host or cells: heparinized human whole blood, LPS-stimulated, with aspirin added
T2 sequence (P35354 18-604): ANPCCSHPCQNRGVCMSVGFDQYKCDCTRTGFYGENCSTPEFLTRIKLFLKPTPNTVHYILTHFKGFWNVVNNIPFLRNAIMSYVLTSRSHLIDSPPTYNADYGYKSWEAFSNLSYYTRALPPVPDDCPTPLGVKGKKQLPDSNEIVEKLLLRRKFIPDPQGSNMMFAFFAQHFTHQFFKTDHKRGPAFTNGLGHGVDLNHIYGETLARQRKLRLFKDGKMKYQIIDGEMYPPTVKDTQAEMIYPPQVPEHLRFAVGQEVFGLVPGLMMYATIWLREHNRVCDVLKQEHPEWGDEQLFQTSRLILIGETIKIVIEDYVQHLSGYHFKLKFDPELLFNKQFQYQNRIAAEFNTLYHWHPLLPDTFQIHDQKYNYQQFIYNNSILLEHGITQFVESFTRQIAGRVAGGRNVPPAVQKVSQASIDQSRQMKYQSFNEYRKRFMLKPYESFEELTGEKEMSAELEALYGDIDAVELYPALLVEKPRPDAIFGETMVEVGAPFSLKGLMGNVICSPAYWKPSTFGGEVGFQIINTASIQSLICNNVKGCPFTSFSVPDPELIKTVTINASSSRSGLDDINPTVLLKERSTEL
Description: as §1
Blood is divided into two groups; one will be used to determine COX-1 activity and the other one for COX-2. The procedure to follow will be different in each case.
For COX-2, 3-mL tubes are prepared in duplicate containing 5 μL of the test compound (solution in DMSO) and 5 μL of vehicle in the case of blanks and controls. To each tube, 5 μL of a 2 mg/mL solution of aspirin in DMSO is also added (in order to inhibit COX-1 activity), and to all tubes except the blanks 5 μL of LPS is also added (in order to induce COX-2 activy). Finally, 1 mL of heparinized blood is added to each tube, and tubes are then stirred and placed in a thermostatized bath at 37° C. for 24 h. Then, tubes are centrifuged at 2000 g for 10 min at 4° C., the resulting plasma is collected and is frozen at −70° C. until use. COX-2 activity is determined by measuring prostaglandin E2 levels in the samples. The plasma stored at −70° C. is defrozen and prostaglandin E2 levels in these samples are determined using a kit (Kit Prostaglandin E2, Biotrak EIA system RPN222 Amershan), according to the manufacturer's instructions.

T1 sequence (P23219 24-599): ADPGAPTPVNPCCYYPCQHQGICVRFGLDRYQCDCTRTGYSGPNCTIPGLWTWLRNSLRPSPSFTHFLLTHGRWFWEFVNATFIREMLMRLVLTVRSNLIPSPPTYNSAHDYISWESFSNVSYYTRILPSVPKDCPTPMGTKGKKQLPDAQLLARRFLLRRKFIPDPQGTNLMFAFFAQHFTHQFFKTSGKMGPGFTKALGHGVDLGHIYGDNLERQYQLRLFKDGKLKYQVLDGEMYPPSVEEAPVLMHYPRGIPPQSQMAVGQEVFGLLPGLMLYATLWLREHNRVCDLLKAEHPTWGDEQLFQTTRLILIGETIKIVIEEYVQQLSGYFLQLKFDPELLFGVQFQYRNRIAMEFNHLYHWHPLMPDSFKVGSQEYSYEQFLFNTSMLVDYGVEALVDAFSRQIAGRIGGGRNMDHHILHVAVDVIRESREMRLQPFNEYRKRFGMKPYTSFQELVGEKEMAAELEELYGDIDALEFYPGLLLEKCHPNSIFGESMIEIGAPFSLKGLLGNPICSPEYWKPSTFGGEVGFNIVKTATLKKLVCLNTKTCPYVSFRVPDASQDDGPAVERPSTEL

Row | inhibition at 10 µM (cyclooxygenase-1 (COX-1)) [%] | inhibition at 10 µM (cyclooxygenase-2 (COX-2)) [%] | inhibition at 1 µM (cyclooxygenase-2 (COX-2)) [%] | melting point [°C] | SMILES | % inhibition COX-1 (10 μM) (cyclooxygenase-1 (COX-1)) [%] | % inhibition COX-2 (1 μM) (cyclooxygenase-2 (COX-2)) [%] | % inhibition COX-2 (10 μM) (cyclooxygenase-2 (COX-2)) [%]
1 | 8.3 | 86.5 |  |  | Cc1ncn(-c2ccc(S(C)(=O)=O)cc2)c1-c1ccc(F)cc1 [Example 3, 5-(4-Fluorophenyl)-4-methyl-1-(4-methylsulfonylphenyl)imidazole] |  |  | 
2 | 37.8 | 100 | 89 |  | CS(=O)(=O)c1ccc(-n2cnc(Cl)c2-c2ccc(F)cc2)cc1 [Example 4, 4-Chloro-5-(4-fluorophenyl)-1-(4-methylsulfonylphenyl)imidazole] |  |  | 
3 | 33.8 | 100 | 85.2 |  | CS(=O)(=O)c1ccc(-n2cnc(Br)c2-c2ccc(F)cc2)cc1 [Example 5, 4-Bromo-5-(4-fluorophenyl)-1-(4-methylsulfonylphenyl)imidazole] |  |  | 
4 | 60.1 | 100 | 85.6 |  | CS(=O)(=O)c1ccc(-c2cnc(Cl)n2-c2ccc(F)cc2)cc1 [Example 7, 2Chloro-1-(4-fluorophenyl)-5-(4-methylsulfonylphenyl)imidazole] |  |  | 
5 | 52.7 | 100 | 74 |  | CS(=O)(=O)c1ccc(-c2cnc(C#N)n2-c2ccc(F)cc2)cc1 [Example 10, 1-(4-Fluorophenyl)-5-(4-methylsulfonylphenyl)imidazol-2-carbonitrile] |  |  | 
6 | 70.6 | 100 | 83.6 | 156 to 160 | Cc1ccc(-n2c(-c3ccc(S(C)(=O)=O)cc3)cnc2Cl)cc1 [Example 12, 2-Chloro-1-(4-methylphenyl)-5-(4-methylsulfonylphenyl)imidazole] |  |  | 

The next lines start with the compound.

Row | SMILES | inhibition at 10 µM (cyclooxygenase-1 (COX-1)) [%] | inhibition at 10 µM (cyclooxygenase-2 (COX-2)) [%] | inhibition at 1 µM (cyclooxygenase-2 (COX-2)) [%] | melting point [°C] | % inhibition COX-1 (10 μM) (cyclooxygenase-1 (COX-1)) [%] | % inhibition COX-2 (1 μM) (cyclooxygenase-2 (COX-2)) [%] | % inhibition COX-2 (10 μM) (cyclooxygenase-2 (COX-2)) [%]
7 | Cc1ccc(-c2c(Cl)ncn2-c2ccc(S(C)(=O)=O)cc2)cc1 [4(1), 4-Chloro-5-(4-methylphenyl)-1-(4-methylsulfonylphenyl)imidazole] | 34 | 100 |  |  |  |  | 
8 | CS(=O)(=O)c1ccc(-n2cnc(Cl)c2-c2ccccc2)cc1 [4(3), 4-Chloro-1-(4-methylsulfonylphenyl)-5-phenylimidazole] | 47.9 | 96 | 82.6 |  |  |  | 
9 | Cc1ccc(-c2c(Cl)ncn2-c2ccc(S(C)(=O)=O)cc2)cc1F [4(8), 4-Chloro-5-(3-fluoro-4-methylphenyl)-1-(4-methylsulfonylphenyl)-imidazole] | 47.5 | 100 | 75.1 |  |  |  | 
10 | Cc1ccc(-c2c(Cl)ncn2-c2ccc(S(C)(=O)=O)cc2)cn1 [4(11), 4-Chloro-5-(6-methyl-3-pyridyl)-1-(4-methylsulfonylphenyl)imidazole] | 39.7 | 100 | 58.4 |  |  |  | 
11 | CS(=O)(=O)c1ccc(-n2cnc(Cl)c2-c2ccc(Cl)nc2)cc1 [4(16), 4-Chloro-5-(6-chloro-3-pyridyl)-1-(4-methylsulfonylphenyl)imidazole] | 42.5 | 100 |  |  |  |  | 
12 | CS(=O)(=O)c1ccc(-n2cnc(Cl)c2-c2ccc(Cl)nc2Cl)cc1 [4(17)] |  |  |  |  | 22.7 | 65 | 86.3
13 | CCOc1ccc(-c2c(Cl)ncn2-c2ccc(S(C)(=O)=O)cc2)cc1 [4(22), 4-Chloro-5-(4-ethoxyphenyl)-1-(4-methylsulfonylphenyl)imidazole] | 72.1 | 100 | 100 |  |  |  | 
14 | Cc1ccc(-c2c(Cl)ncn2-c2ccc(S(N)(=O)=O)cc2)cc1 [13(3), 4-[4-Chloro-5-(4-methylphonyl)imidazol-1-yl]benzenesulfonamide] |  |  |  |  | 71.3 | 76.1 | 100

Source: patent publication US6838476B1, “Imidazoles with anti-inflammatory activity” (J. Uriach & Cia, SA, priority 1998, dated 2005)
